The values below come from publication PMC11378298 (ACS Chemical Neuroscience, 2024).

Data set [1] in a line: Cytotoxicity in BV-2 cells (PrestoBlue). The conditions noted are these: mouse, BV-2 microglial cells. How it is done: The compounds were tested at 5 concentrations (0.1, 1, 10, 50, and 100 μM).
Mouse microglial cells (BV-2) were a generous gift from Professor Bozena Kaminska-Kaczmarek of the Laboratory of Molecular Neurobiology, Neurobiology Center, Nencki Institute of Experimental Biology, Polish Academy of Sciences, Warsaw, Poland. Cells were cultured in Dulbecco’s modified Eagle’s Medium-high glucose (DMEM, Glutamax Thermo Fisher) supplemented with 10% heat-inactivated fetal bovine serum (Thermo Fisher), 100 IU/mL penicillin (Merck) and 100 μg/mL streptomycin (Merck). Cells were cultured in flasks (area 175 cm^2, Nunc), and incubated at 37 °C, 5% CO2. To evaluate the level of NO, IL-6, and TNF-α and the effectiveness of the compounds tested, BV-2 microglia cells were cultured in a 96-well culture plate (5 × 10^4 cells per well, Falcon). For the measurement of cell viability and cell membrane damage, cells were placed in a 96-well culture plate (2 × 10^4 cells per well, Falcon). Before the tests, cells were grown for 24 h in the incubator (37 °C, 5% CO2).
Cell viability was evaluated using the PrestoBlue reagent (ThermoFisher), according to the manufacturer’s procedures.[87] Following 24 h of incubation with the tested molecule, PrestoBlue reagent was added to a microplate well in an amount equal to one-tenth of the remaining medium volume. The resulting mixture was incubated for 15 min at 37 °C, and the fluorescence intensity (EX 530 nm; EM 580 nm) was measured in the plate reader POLARstar Omega, (BMG Labtech).

The nature of a further data set: in vitro. The conditions noted are these: PAMPA. A general note: In PAMPA a lipid-coated filter parts donor from acceptor wells.
Data set [2] relates to BV-2 cell line. Description: TNF-α release in LPS-treated BV-2 cells (LANCE Ultra TR-FRET). The format is cell-based, mouse. The conditions noted are these: compound 10 μM; LPS 100 ng/mL. How it is done:
(§1) Cell viability was determined by Presto Blue assay after 24 h. (B) Effect of compounds 11, 34, and 36 (0.1, 1, 10 μM) on NO-release (%) in LPS-treated (100 ng/mL) BV-2 cell line. NO-release was measured using a fluorometric assay with 2,3-diaminonaphthalene (DAN). (C, D) Effects of compounds 11 and 36 (0.1, 1, 10 μM) on IL-6 and TNF-α release in LPS-treated (100 ng/mL) BV-2 cell line. The IL-6 and TNF-α levels were measured using LANCE Ultra TR-FRET Detection Kit (PerkinElmer). Statistical analysis was performed using GraphPad Prism 9.0.0. All values are expressed as mean with SD. Differences among groups were evaluated by one-way ANOVA followed by posthoc analysis (Dunnett’s multiple comparison tests) vs. control group (LPS on BV-2 cells and okadaic acid on HT-22 cells) and were considered statistically significant if p < 0.05 (*p < 0.05, **p < 0.01, ***p < 0.001, and ****p < 0.0001). […]
(§2) The IL-6 and TNF-α levels in the culture supernatants were measured using LANCE Ultra TR-FRET Detection Kit (PerkinElmer), according to manufacturer protocol. […] After 1 h of incubation of IL-6 and 3h for incubation of TNF-α in the dark, at 22 °C, the plates were read with an EnVision plate reader (PerkinElmer) with the excitation wavelength at 320 nm, the donor emission at 615 nm, and the acceptor emission at 660 nm. […]
Background: TR-FRET usually uses a lanthanide donor and a delayed reading to cut background.

The next data set concerns the target GSK-3β (Homo sapiens, UniProt P49841). The data set is described as follows: biochemical. As for the experimental part:
We evaluated the pharmacological properties of the compounds in vitro against GSK-3β using the GSK-3β Kinase Enzyme System followed by ADP-Glo bioluminescent assay.[50] The principle of the assay is to determine the amount of ADP formed from ATP in the kinase reaction. […] Additionally, compounds 11 and 36 in complex with GSK-3β were analyzed by the proteins’ melting temperature determination using Thermal Shift Assay (see Figure S1 in the SI).
The inhibitory activities of the tested compounds against the GSK-3β human recombinant kinase were measured using Promega’s GSK-3β Kinase Enzyme System (Promega; Madison, WI, USA), according to the provided manufacturer’s instruction, using the low-volume white polystyrene 384-well plates. The ADP-Glo Assay (Promega; Madison, WI, USA) was used for bioluminescent detection of the kinase activity. Tested compounds were prepared as 1 mM stock solutions in DMSO and diluted with the Kinase Assay Buffer before use (40 mM Tris, pH 7.5, enriched with 50 μM dithiothreitol; DTT) to obtain the desired compounds’ concentrations. The kinase enzyme, GSK-3β-substrate (derived from human muscle glycogen synthase 1), and ATP were also diluted in the assay buffer before use. At first, GSK-3β (10 ng per well) was incubated with the tested sample (10 μM in well) for 5 min. In the case of blank wells, the DMSO solution (1% in well) was used instead of the target samples’ solutions. After the incubation period, ATP (25 μM in well) and GSK-3β-substrate (0.2 μg/μL in well) were added to start the enzymatic reaction. The reaction mixture was kept at room temperature for 1 h, followed by the addition of the ADP-Glo reagent, to terminate the kinase reaction and deplete any remaining ATP. After the following 40 min—a second reagent (Kinase Detection Reagent) was applied to convert the obtained ADP to ATP and to generate light from the newly synthesized ATP using a luciferase/luciferin reaction. The mixture was kept for another 30 min at room temperature, then the luminescence was measured. Based on equation 100 – (S/B) × 100 (where S and B were the respective enzyme activities with and without the tested sample, respectively) the percent of inhibition of GSK-3β for each compound was calculated. […] Calculations were made using nonlinear regression (GraphPad Prism 9; GraphPad Software, San Diego, CA, USA) by plotting the residual enzyme activities against the applied inhibitor concentration. […] Each data point was collected in triplicate.

The conditions of data set [3]: PAMPA; for permeability classification: versus caffeine.
The test system of data set [4] is BV-2 cell line. Description: IL-6 release in LPS-treated BV-2 cells (LANCE Ultra TR-FRET). The conditions noted are these: compound 10 μM; LPS 100 ng/mL. The format is cell-based, mouse. How it is done: as §1, §2

A word on the IC50: it is the point on the concentration scale where inhibition reaches its midpoint. A lower IC50 goes with greater potency in that assay. The Papp is the rate of passage across a membrane or cell layer, normalised by area and donor concentration. A low value points to slow passage.

Sequence of GSK-3β (P49841 whole entry): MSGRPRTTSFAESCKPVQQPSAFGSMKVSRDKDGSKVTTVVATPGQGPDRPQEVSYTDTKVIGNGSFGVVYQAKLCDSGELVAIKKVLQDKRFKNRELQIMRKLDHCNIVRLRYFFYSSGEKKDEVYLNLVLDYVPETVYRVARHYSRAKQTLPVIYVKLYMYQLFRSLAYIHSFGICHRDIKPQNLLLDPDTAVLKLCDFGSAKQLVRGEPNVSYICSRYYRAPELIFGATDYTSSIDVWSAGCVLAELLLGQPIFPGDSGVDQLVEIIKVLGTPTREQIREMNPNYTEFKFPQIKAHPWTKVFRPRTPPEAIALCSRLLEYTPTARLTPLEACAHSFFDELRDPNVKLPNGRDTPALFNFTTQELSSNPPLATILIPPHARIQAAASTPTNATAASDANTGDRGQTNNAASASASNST

With `O=C(Nc1cc(-c2ccc(-c3ncon3)s2)ccn1)C1CC1` [Compound 36, N-(4-(5-(1,2,4-Oxadiazol-3-yl)thiophen-2-yl)pyridin-2-yl)cyclopropanecarboxamide], the IC50 at 24 h in data set [1] worked out at 89.3 ± 4.9 µM. This compound yielded a Papp in the data set “in vitro” of 94 ± 8.9 nm/s. Further, the TNF-α release entry in the data set with BV-2 cell line [2] is given as “significantly reducing the release”. Half-maximal inhibition against GSK-3β (IC50) required 0.07 ± 0.001 µM. The permeability classification entry in data set [3] is “well permeable”. The same compound yielded a Pe in data set [3] (unit not given) of 9.4. The IL-6 release entry in the data set on BV-2 cell line [4] is “significantly reducing the release”.
Compound `NC(=O)N1CC=C(c2ccnc(NC(=O)C3CC3)c2)C1` [Compound 11, 3-(2-(Cyclopropanecarboxamido)pyridin-4-yl)-2,5-dihydro-1H-pyrrole-1-carboxamide] yielded an IC50 at 24 h in data set [1] of 23.4 ± 1.7 µM. This compound yielded a Papp in “in vitro” of 5.3 ± 8.2 nm/s. For the same compound, the TNF-α release result with BV-2 cell line [2] was “significantly reducing the release”. At GSK-3β, this compound displayed an IC50 of 0.141 ± 0.005 µM. In addition, in data set [3], the permeability classification entry is “might not penetrate through the biological membranes”. Moreover, the IL-6 release entry in the data set on BV-2 cell line [4] is “significantly reducing the release”.
